Measured values from the NIST ThermoML archive (doi:10.1016/j.jct.2018.08.004).

Test: xn = mol fraction of the nth substance listed
Settings: for surface tension liquid-gas: Maximal bubble pressure; for mass density: 100 kPa, Liquid, Vibrating tube method

CCCC[n+]1ccccc1.N#C[N-]C#N [1-butylpyridinium dicyanamide] + CCO
Settings | mass density [kg/m3] | surface tension liquid-gas [mN/m]
288.15 K, x1 = 0.0999 | 877.29 | 25.7
288.15 K, x1 = 0.201 | 930.73 | 28
288.15 K, x1 = 0.2996 | 967.04 | 30.3
288.15 K, x1 = 0.3993 | 994.22 | 33.2
288.15 K, x1 = 0.4897 | 1013.42 | 35.8
288.15 K, x1 = 0.6017 | 1032.37 | 38.3
288.15 K, x1 = 0.693 | 1044.81 | 40.9
288.15 K, x1 = 0.7974 | 1056.62 | 44.5
288.15 K, x1 = 0.905 | 1066.7 | 50.3
288.15 K, x1 = 1 | 1074.97 | 56.3
293.15 K, x1 = 0.0999 | 873.42 | 25.1
293.15 K, x1 = 0.201 | 927.12 | 27.5
293.15 K, x1 = 0.2996 | 963.57 | 29.8
293.15 K, x1 = 0.3993 | 990.86 | 32.9
293.15 K, x1 = 0.4897 | 1010.13 | 35.5
293.15 K, x1 = 0.6017 | 1029.14 | 38
293.15 K, x1 = 0.693 | 1041.62 | 40.6
293.15 K, x1 = 0.7974 | 1053.47 | 44.2
293.15 K, x1 = 0.905 | 1063.59 | 50
293.15 K, x1 = 1 | 1071.9 | 56
298.15 K, x1 = 0.0999 | 869.54 | 24.6
298.15 K, x1 = 0.201 | 923.5 | 27.1
298.15 K, x1 = 0.2996 | 960.1 | 29.5
298.15 K, x1 = 0.3993 | 987.5 | 32.6
298.15 K, x1 = 0.4897 | 1006.84 | 35.2
298.15 K, x1 = 0.6017 | 1025.91 | 37.7
298.15 K, x1 = 0.693 | 1038.43 | 40.3
298.15 K, x1 = 0.7974 | 1050.31 | 43.9
298.15 K, x1 = 0.905 | 1060.48 | 49.7
298.15 K, x1 = 1 | 1068.83 | 55.7
303.15 K, x1 = 0.0999 | 865.66 | 24.2
303.15 K, x1 = 0.201 | 919.87 | 26.7
303.15 K, x1 = 0.2996 | 956.64 | 29.1
303.15 K, x1 = 0.3993 | 984.14 | 32.3
303.15 K, x1 = 0.4897 | 1003.56 | 34.9
303.15 K, x1 = 0.6017 | 1022.7 | 37.4
303.15 K, x1 = 0.693 | 1035.25 | 40
303.15 K, x1 = 0.7974 | 1047.18 | 43.6
303.15 K, x1 = 0.905 | 1057.35 | 49.4
303.15 K, x1 = 1 | 1065.76 | 55.5
308.15 K, x1 = 0.0999 | 861.77 | 23.8
308.15 K, x1 = 0.201 | 916.25 | 26.3
308.15 K, x1 = 0.2996 | 953.18 | 28.8
308.15 K, x1 = 0.3993 | 980.79 | 31.9
308.15 K, x1 = 0.4897 | 1000.29 | 34.5
308.15 K, x1 = 0.6017 | 1019.5 | 37
308.15 K, x1 = 0.693 | 1032.09 | 39.7
308.15 K, x1 = 0.7974 | 1044.05 | 43.3
308.15 K, x1 = 0.905 | 1054.26 | 49.1
308.15 K, x1 = 1 | 1062.7 | 55.2
313.15 K, x1 = 0.0999 | 857.88 | 23.4
313.15 K, x1 = 0.201 | 912.63 | 25.9
313.15 K, x1 = 0.2996 | 949.73 | 28.3
313.15 K, x1 = 0.3993 | 977.47 | 31.4
313.15 K, x1 = 0.4897 | 997.04 | 34.1
313.15 K, x1 = 0.6017 | 1016.31 | 36.7
313.15 K, x1 = 0.693 | 1028.95 | 39.4
313.15 K, x1 = 0.7974 | 1040.95 | 43.1
313.15 K, x1 = 0.905 | 1051.18 | 48.8
313.15 K, x1 = 1 | 1059.66 | 54.9
318.15 K, x1 = 0.0999 | 853.98 | 22.7
318.15 K, x1 = 0.201 | 909.01 | 25.4
318.15 K, x1 = 0.2996 | 946.29 | 27.9
318.15 K, x1 = 0.3993 | 974.15 | 31.1
318.15 K, x1 = 0.4897 | 993.79 | 33.8
318.15 K, x1 = 0.6017 | 1013.14 | 36.4
318.15 K, x1 = 0.693 | 1025.82 | 39
318.15 K, x1 = 0.7974 | 1037.86 | 42.7
318.15 K, x1 = 0.905 | 1048.12 | 48.6
318.15 K, x1 = 1 | 1056.64 | 54.5

CCCC[n+]1ccccc1.N#C[N-]C#N [1-butylpyridinium dicyanamide] + CC(C)O
Settings | mass density [kg/m3] | surface tension liquid-gas [mN/m]
288.15 K, x1 = 0.1008 | 857.57 | 23.3
288.15 K, x1 = 0.2007 | 906.69 | 25.7
288.15 K, x1 = 0.3005 | 944.56 | 26.9
288.15 K, x1 = 0.3999 | 974.5 | 28.5
288.15 K, x1 = 0.5005 | 999.39 | 30.5
288.15 K, x1 = 0.5998 | 1019.53 | 33.2
288.15 K, x1 = 0.7004 | 1036.66 | 35.9
288.15 K, x1 = 0.7972 | 1050.66 | 39.9
288.15 K, x1 = 0.9032 | 1063.81 | 45.5
288.15 K, x1 = 1 | 1074.97 | 56.3
293.15 K, x1 = 0.1008 | 853.79 | 22.8
293.15 K, x1 = 0.2007 | 903.11 | 25.2
293.15 K, x1 = 0.3005 | 941.13 | 26.7
293.15 K, x1 = 0.3999 | 971.16 | 28
293.15 K, x1 = 0.5005 | 996.12 | 30.2
293.15 K, x1 = 0.5998 | 1016.32 | 32.9
293.15 K, x1 = 0.7004 | 1033.49 | 35.7
293.15 K, x1 = 0.7972 | 1047.51 | 39.6
293.15 K, x1 = 0.9032 | 1060.69 | 45.2
293.15 K, x1 = 1 | 1071.9 | 56
298.15 K, x1 = 0.1008 | 849.98 | 22.3
298.15 K, x1 = 0.2007 | 899.51 | 24.8
298.15 K, x1 = 0.3005 | 937.68 | 26.2
298.15 K, x1 = 0.3999 | 967.82 | 27.8
298.15 K, x1 = 0.5005 | 992.86 | 29.9
298.15 K, x1 = 0.5998 | 1013.12 | 32.5
298.15 K, x1 = 0.7004 | 1030.32 | 35.3
298.15 K, x1 = 0.7972 | 1044.37 | 39.3
298.15 K, x1 = 0.9032 | 1057.57 | 44.9
298.15 K, x1 = 1 | 1068.83 | 55.7
303.15 K, x1 = 0.1008 | 846.14 | 22
303.15 K, x1 = 0.2007 | 895.9 | 24.5
303.15 K, x1 = 0.3005 | 934.24 | 25.9
303.15 K, x1 = 0.3999 | 964.49 | 27.5
303.15 K, x1 = 0.5005 | 989.61 | 29.6
303.15 K, x1 = 0.5998 | 1009.92 | 32.3
303.15 K, x1 = 0.7004 | 1027.16 | 35.1
303.15 K, x1 = 0.7972 | 1041.24 | 39.1
303.15 K, x1 = 0.9032 | 1054.46 | 44.7
303.15 K, x1 = 1 | 1065.76 | 55.5
308.15 K, x1 = 0.1008 | 842.28 | 21.6
308.15 K, x1 = 0.2007 | 892.3 | 24.1
308.15 K, x1 = 0.3005 | 930.8 | 25.5
308.15 K, x1 = 0.3999 | 961.18 | 27.1
308.15 K, x1 = 0.5005 | 986.37 | 29.3
308.15 K, x1 = 0.5998 | 1006.74 | 32
308.15 K, x1 = 0.7004 | 1024.02 | 34.8
308.15 K, x1 = 0.7972 | 1038.13 | 38.8
308.15 K, x1 = 0.9032 | 1051.37 | 44.4
308.15 K, x1 = 1 | 1062.7 | 55.2
313.15 K, x1 = 0.1008 | 838.39 | 21.3
313.15 K, x1 = 0.2007 | 888.69 | 23.8
313.15 K, x1 = 0.3005 | 927.36 | 25.2
313.15 K, x1 = 0.3999 | 957.86 | 26.8
313.15 K, x1 = 0.5005 | 983.14 | 29
313.15 K, x1 = 0.5998 | 1003.56 | 31.7
313.15 K, x1 = 0.7004 | 1020.89 | 34.5
313.15 K, x1 = 0.7972 | 1035.03 | 38.5
313.15 K, x1 = 0.9032 | 1048.3 | 44.1
313.15 K, x1 = 1 | 1059.66 | 54.9
318.15 K, x1 = 0.1008 | 834.48 | 20.8
318.15 K, x1 = 0.2007 | 885.06 | 23.4
318.15 K, x1 = 0.3005 | 923.93 | 24.9
318.15 K, x1 = 0.3999 | 954.55 | 26.5
318.15 K, x1 = 0.5005 | 979.93 | 28.6
318.15 K, x1 = 0.5998 | 1000.4 | 31.4
318.15 K, x1 = 0.7004 | 1017.77 | 34.2
318.15 K, x1 = 0.7972 | 1031.94 | 38.2
318.15 K, x1 = 0.9032 | 1045.24 | 43.8
318.15 K, x1 = 1 | 1056.64 | 54.5
